Laboratory results taken from PubChem BioAssay AID1963862 (Molecular Pharmacology Branch, DTP, NCI, 2024).

System: KRAS patient-derived spheroids with HUVEC/MSC, viability
Assay: Anticancer human tumor 941728-121-R-J1-PDC patient-derived lung adenocarcinoma cell line growth inhibition [KRAS2]
Settings: for IC50: curve of first compound; for viability, T/C: stronger effect = lower value
Summary of the method: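 KRAS-mutant tumor cells were grown as spheroids with HUVEC endothelial cells and human MSCs as stroma. Targeted agents were tested alone and with KRAS pathway inhibitors. Doses started at or near clinical Cmax, or 10 microM, descending half-log.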

[1] = second compound 0.1 µM, first compound 0.0316 µM
[2] = second compound 0.1 µM, first compound 0.1 µM
[3] = second compound 0.1 µM, first compound 0.316 µM
[4] = second compound 0.1 µM, first compound 1 µM
[5] = second compound 0.1 µM, first compound 3.16 µM
[6] = second compound 0.1 µM, first compound 10 µM
[7] = second compound 0.316 µM, first compound 0.0316 µM
[8] = second compound 0.316 µM, first compound 0.1 µM
[9] = second compound 0.316 µM, first compound 0.316 µM
[10] = second compound 0.316 µM, first compound 1 µM
[11] = second compound 0.316 µM, first compound 3.16 µM
[12] = second compound 0.316 µM, first compound 10 µM
[13] = second compound 1 µM, first compound 0.0316 µM
[14] = second compound 1 µM, first compound 0.1 µM
[15] = second compound 1 µM, first compound 0.316 µM
[16] = second compound 1 µM, first compound 1 µM
[17] = second compound 1 µM, first compound 3.16 µM
[18] = second compound 1 µM, first compound 10 µM
[19] = second compound 3.16 µM, first compound 0.0316 µM
[20] = second compound 3.16 µM, first compound 0.1 µM
[21] = second compound 3.16 µM, first compound 0.316 µM
[22] = second compound 3.16 µM, first compound 1 µM
[23] = second compound 3.16 µM, first compound 3.16 µM
[24] = second compound 3.16 µM, first compound 10 µM
[25] = second compound 10 µM, first compound 0.0316 µM
[26] = second compound 10 µM, first compound 0.1 µM
[27] = second compound 10 µM, first compound 0.316 µM
[28] = second compound 10 µM, first compound 1 µM
[29] = second compound 10 µM, first compound 3.16 µM
[30] = second compound 10 µM, first compound 10 µM
[31] = second compound 0.0316 µM, first compound 0.01 µM
[32] = second compound 0.0316 µM, first compound 0.0316 µM
[33] = second compound 0.0316 µM, first compound 0.1 µM
[34] = second compound 0.1 µM, first compound 0.01 µM
[35] = second compound 0.316 µM, first compound 0.01 µM
[36] = second compound 1 µM, first compound 0.01 µM
[37] = second compound 3.16 µM, first compound 0.01 µM
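Also: spheroids exposed to agents for seven days before readout.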

CC1OCC2(CCN(c3cnc(Sc4ccnc(N)c4Cl)c(N)n3)CC2)C1N (stereo not given) + C=CC(=O)N1CCN(c2nc(=O)n(-c3c(C)ccnc3C(C)C)c3nc(-c4c(O)cccc4F)c(F)cc23)C(C)C1
IC50 (second compound 0.1 µM): < 31.6 nM | IC50 (second compound 0.316 µM): < 31.6 nM | IC50 (second compound 1 µM): < 31.6 nM | IC50 (second compound 3.16 µM): < 31.6 nM | IC50 (second compound 10 µM): < 31.6 nM | viability, T/C [1]: 21.9% | viability, T/C [2]: 20.6% | viability, T/C [3]: 17.3% | viability, T/C [4]: 16.8% | viability, T/C [5]: 16.6% | viability, T/C [6]: 12.9% | viability, T/C [7]: 26.5% | viability, T/C [8]: 23% | viability, T/C [9]: 20.1% | viability, T/C [10]: 17.1% | viability, T/C [11]: 15.1% | viability, T/C [12]: 12.4% | viability, T/C [13]: 31.1% | viability, T/C [14]: 24.7% | viability, T/C [15]: 20.4% | viability, T/C [16]: 18.9% | viability, T/C [17]: 19.6% | viability, T/C [18]: 17.8% | viability, T/C [19]: 29% | viability, T/C [20]: 25.4% | viability, T/C [21]: 25.6% | viability, T/C [22]: 21.5% | viability, T/C [23]: 22.1% | viability, T/C [24]: 18.5% | viability, T/C [25]: 34.1% | viability, T/C [26]: 35% | viability, T/C [27]: 31% | viability, T/C [28]: 26.8% | viability, T/C [29]: 26.7% | viability, T/C [30]: 28.5%

Cn1nccc1Nc1nccc(-c2cc3c(s2)C(C)(C)N(CCN2CCOCC2)C3=O)n1 + C=CC(=O)N1CCN(c2nc(=O)n(-c3c(C)ccnc3C(C)C)c3nc(-c4c(O)cccc4F)c(F)cc23)C(C)C1
IC50 (second compound 0.1 µM): < 31.6 nM | IC50 (second compound 0.316 µM): < 31.6 nM | IC50 (second compound 1 µM): < 31.6 nM | IC50 (second compound 3.16 µM): < 31.6 nM | IC50 (second compound 10 µM): < 31.6 nM | viability, T/C [1]: 23.9% | viability, T/C [2]: 23.4% | viability, T/C [3]: 19% | viability, T/C [4]: 19.6% | viability, T/C [5]: 17.7% | viability, T/C [6]: 20.7% | viability, T/C [7]: 25.4% | viability, T/C [8]: 24.4% | viability, T/C [9]: 20.2% | viability, T/C [10]: 18.9% | viability, T/C [11]: 16.8% | viability, T/C [12]: 21.4% | viability, T/C [13]: 26.1% | viability, T/C [14]: 27.4% | viability, T/C [15]: 21.1% | viability, T/C [16]: 19.9% | viability, T/C [17]: 17.8% | viability, T/C [18]: 29.4% | viability, T/C [19]: 30.6% | viability, T/C [20]: 31.4% | viability, T/C [21]: 24.9% | viability, T/C [22]: 23.6% | viability, T/C [23]: 22.9% | viability, T/C [24]: 32.3% | viability, T/C [25]: 36.4% | viability, T/C [26]: 38% | viability, T/C [27]: 30.7% | viability, T/C [28]: 30% | viability, T/C [29]: 34.2% | viability, T/C [30]: 57.5%

CC(=O)OC12COC1CC(O)C1(C)C(=O)C(O)C3=C(C)C(OC(=O)C(O)C(NC(=O)OC(C)(C)C)c4ccccc4)CC(O)(C(OC(=O)c4ccccc4)C21)C3(C)C (stereo not given) + C=CC(=O)N1CCN(c2nc(OCC3CCCN3C)nc3c2CCN(c2cccc4cccc(C)c24)C3)CC1CC#N
IC50 (second compound 0.0316 µM): < 10 nM | IC50 (second compound 0.1 µM): < 10 nM | IC50 (second compound 0.316 µM): < 10 nM | IC50 (second compound 1 µM): < 10 nM | IC50 (second compound 3.16 µM): < 10 nM | viability, T/C [31]: 28.2% | viability, T/C [32]: 28.4% | viability, T/C [33]: 26.8% | viability, T/C (second compound 0.0316 µM, first compound 0.316 µM): 25.7% | viability, T/C (second compound 0.0316 µM, first compound 1 µM): 29.1% | viability, T/C (second compound 0.0316 µM, first compound 3.16 µM): 26.7% | viability, T/C [34]: 24.6% | viability, T/C [1]: 22.2% | viability, T/C [2]: 21.9% | viability, T/C [3]: 22.9% | viability, T/C [4]: 24.6% | viability, T/C [5]: 26.2% | viability, T/C [35]: 22.8% | viability, T/C [7]: 21.6% | viability, T/C [8]: 21.1% | viability, T/C [9]: 22.1% | viability, T/C [10]: 21.1% | viability, T/C [11]: 24.4% | viability, T/C [36]: 21.2% | viability, T/C [13]: 23.4% | viability, T/C [14]: 21.1% | viability, T/C [15]: 19.8% | viability, T/C [16]: 21.7% | viability, T/C [17]: 20.8% | viability, T/C [37]: 27.9% | viability, T/C [19]: 33.1% | viability, T/C [20]: 26.4% | viability, T/C [21]: 27.3% | viability, T/C [22]: 26.9% | viability, T/C [23]: 27.9%

CN(C)C/C=C/C(=O)Nc1cc2c(Nc3ccc(F)c(Cl)c3)ncnc2cc1O[C@H]1CCOC1 + C=CC(=O)N1CCN(c2nc(OCC3CCCN3C)nc3c2CCN(c2cccc4cccc(C)c24)C3)CC1CC#N
IC50 (second compound 0.0316 µM): < 0.316 nM | IC50 (second compound 0.1 µM): < 0.316 nM | IC50 (second compound 0.316 µM): < 0.316 nM | IC50 (second compound 1 µM): < 0.316 nM | IC50 (second compound 3.16 µM): < 0.316 nM | viability, T/C (second compound 0.0316 µM, first compound 0.000316 µM): 22.7% | viability, T/C (second compound 0.0316 µM, first compound 0.001 µM): 22.4% | viability, T/C (second compound 0.0316 µM, first compound 0.00316 µM): 22.2% | viability, T/C [31]: 23.3% | viability, T/C [32]: 20.5% | viability, T/C [33]: 20.6% | viability, T/C (second compound 0.1 µM, first compound 0.000316 µM): 21.3% | viability, T/C (second compound 0.1 µM, first compound 0.001 µM): 19.3% | viability, T/C (second compound 0.1 µM, first compound 0.00316 µM): 18.8% | viability, T/C [34]: 20.1% | viability, T/C [1]: 20.4% | viability, T/C [2]: 18.6% | viability, T/C (second compound 0.316 µM, first compound 0.000316 µM): 21.1% | viability, T/C (second compound 0.316 µM, first compound 0.001 µM): 20.9% | viability, T/C (second compound 0.316 µM, first compound 0.00316 µM): 21.4% | viability, T/C [35]: 21.5% | viability, T/C [7]: 20.5% | viability, T/C [8]: 18.3% | viability, T/C (second compound 1 µM, first compound 0.000316 µM): 21.1% | viability, T/C (second compound 1 µM, first compound 0.001 µM): 21.2% | viability, T/C (second compound 1 µM, first compound 0.00316 µM): 20.9% | viability, T/C [36]: 19.1% | viability, T/C [13]: 19.2% | viability, T/C [14]: 21.2% | viability, T/C (second compound 3.16 µM, first compound 0.000316 µM): 1.16% | viability, T/C (second compound 3.16 µM, first compound 0.001 µM): 0.2% | viability, T/C (second compound 3.16 µM, first compound 0.00316 µM): 0.46% | viability, T/C [37]: 0.19% | viability, T/C [19]: 0.45% | viability, T/C [20]: 1.8%
